Experiment [1] deals with T1, (E)-β-farnesene synthase (BFS), A. annua BFS (Artemisia annua, UniProt Q9FXY7, Y305L/Y433A, form not given).
T1 construct: gene CASC125
The conditions noted are these: 5 mM MgCl2, pH 7.0, 30 °C, inorganic pyrophosphatase coupled. The text has this: (§1) malachite green assay, steady-state kinetics on (E)-β-farnesene synthase (BFS), A. annua BFS

Experiment [2] addresses T2, (E)-β-farnesene synthase (BFS), A. annua BFS (Artemisia annua, UniProt Q9FXY7, Y433A/V470G, form not given).
T2 construct: gene CASC125
The following applies: 5 mM MgCl2, pH 7.0, 30 °C, inorganic pyrophosphatase coupled.
Excerpt: as §1

Experiment [3] addresses T3, (E)-β-farnesene synthase (BFS), A. annua BFS (Artemisia annua, UniProt Q9FXY7).
T3 construct: gene CASC125
The conditions noted are these: 5 mM MgCl2, pH 7.0, 30 °C, inorganic pyrophosphatase coupled.
Excerpt: as §1

The target in experiment [4] is T4, (E)-β-farnesene synthase (BFS), A. annua BFS (Artemisia annua, UniProt Q9FXY7, Y423L/V470G, form not given).
T4 construct: gene CASC125
T4 sequence (Q9FXY7 whole entry Y423L/V470G, form open): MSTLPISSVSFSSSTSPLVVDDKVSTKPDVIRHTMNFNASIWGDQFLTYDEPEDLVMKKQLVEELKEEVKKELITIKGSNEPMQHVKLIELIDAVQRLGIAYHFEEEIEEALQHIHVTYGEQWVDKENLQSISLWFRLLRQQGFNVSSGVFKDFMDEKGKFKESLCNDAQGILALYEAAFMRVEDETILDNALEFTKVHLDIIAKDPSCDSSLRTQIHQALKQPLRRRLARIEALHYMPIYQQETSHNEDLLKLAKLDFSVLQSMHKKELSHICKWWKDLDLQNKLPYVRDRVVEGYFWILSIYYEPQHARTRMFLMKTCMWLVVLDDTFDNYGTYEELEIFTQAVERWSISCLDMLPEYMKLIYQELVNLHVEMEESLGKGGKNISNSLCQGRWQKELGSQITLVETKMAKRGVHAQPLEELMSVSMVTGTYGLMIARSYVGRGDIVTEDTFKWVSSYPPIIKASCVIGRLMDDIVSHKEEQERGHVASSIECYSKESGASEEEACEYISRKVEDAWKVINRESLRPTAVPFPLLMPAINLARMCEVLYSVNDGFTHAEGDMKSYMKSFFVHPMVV
The conditions noted are these: 5 mM MgCl2, pH 7.0, 30 °C, inorganic pyrophosphatase coupled.
Excerpt: as §1

The target in experiment [5] is T5, amorpha-4,11-diene synthase (ADS) (Artemisia annua, UniProt Q9AR04).
T5 construct: gene AMS1; recombinant
T5 sequence (Q9AR04 whole entry): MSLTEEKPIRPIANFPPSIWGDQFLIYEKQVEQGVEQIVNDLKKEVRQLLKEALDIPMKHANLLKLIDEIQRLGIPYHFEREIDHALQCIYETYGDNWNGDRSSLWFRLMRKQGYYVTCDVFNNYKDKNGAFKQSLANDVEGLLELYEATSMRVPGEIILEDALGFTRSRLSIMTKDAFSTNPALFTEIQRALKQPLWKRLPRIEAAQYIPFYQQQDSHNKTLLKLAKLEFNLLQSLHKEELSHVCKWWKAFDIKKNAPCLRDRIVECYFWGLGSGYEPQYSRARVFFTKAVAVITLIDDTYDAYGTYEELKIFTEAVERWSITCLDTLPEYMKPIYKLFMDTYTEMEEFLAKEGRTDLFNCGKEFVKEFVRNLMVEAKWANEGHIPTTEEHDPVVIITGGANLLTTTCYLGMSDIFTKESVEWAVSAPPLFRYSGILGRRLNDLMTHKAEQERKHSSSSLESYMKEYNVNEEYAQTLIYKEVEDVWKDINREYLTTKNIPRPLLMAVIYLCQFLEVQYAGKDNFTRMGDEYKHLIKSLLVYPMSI
The experiment can be described thus: GC-MS product analysis and malachite green assay. In kind it is biochemical. The conditions noted are these: 5 mM MgCl2, pH 7.0; numbering likely that of A. annua BFS.

The results in this text go back to publication PMC4327562, “Emergence of terpene cyclization in Artemisia annua” (Nature Communications, 2015).

Structures are written as SMILES.

T3 sequence (Q9FXY7 whole entry): as the sequence (Q9FXY7 whole entry Y423L/V470G, form open) above, with L423Y, G470V counted along it
T2 sequence (Q9FXY7 whole entry Y433A/V470G, form open): as the sequence (Q9FXY7 whole entry Y423L/V470G, form open) above, with L423Y, Y433A counted along it
T1 sequence (Q9FXY7 whole entry Y305L/Y433A, form open): as the sequence (Q9FXY7 whole entry Y423L/V470G, form open) above, with Y305L, L423Y, Y433A, G470V counted along it

A word on the Km: it is the substrate concentration at which the rate is half of its maximum. Turning to `CC(C)=CCC/C(C)=C/CC/C(C)=C/CO[P@@](=O)(O)OP(=O)(O)O` (stereo in doubt) [FPP, farnesyl pyrophosphate], the Km in experiment [1] amounted to 5.22 µM; in experiment [2], 4.27 µM; in experiment [3], 10.6 µM; in experiment [4], 5.99 µM.
`CC(C)=CCC/C(C)=C/CC/C(C)=C/COP(=O)(O)OP(=O)(O)O` [FPP, farnesyl pyrophosphate]: in experiment [5], the “GC-MS product analysis and malachite green assay” value is “incorporating the L402Y mutation into ADS induced a broadening of cyclization products”.
